System: Hs578T multi-cell spheroids, viability
Test: Anticancer human tumor Hs578T cell line growth inhibition [IpAb];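 note: drug exposure lasted 7 days before readout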
Conditions: for IC50: curve of first compound; for viability, T/C: stronger effect = lower value
How it was run: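 Spheroids of 60% malignant cells, 25% HUVEC and 15% MSC were exposed to targeted agents combined with ipatasertib or abemaciclib. Doses started at or near clinical Cmax (10 microM when unknown) and fell in half-log steps.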

[1] = second compound 0.01 µM, first compound 0.0316 µM
[2] = second compound 0.01 µM, first compound 0.1 µM
[3] = second compound 0.01 µM, first compound 0.316 µM
[4] = second compound 0.01 µM, first compound 1 µM
[5] = second compound 0.01 µM, first compound 3.16 µM
[6] = second compound 0.01 µM, first compound 10 µM
[7] = second compound 0.0316 µM, first compound 0.0316 µM
[8] = second compound 0.0316 µM, first compound 0.1 µM
[9] = second compound 0.0316 µM, first compound 0.316 µM
[10] = second compound 0.0316 µM, first compound 1 µM
[11] = second compound 0.0316 µM, first compound 3.16 µM
[12] = second compound 0.0316 µM, first compound 10 µM
[13] = second compound 0.1 µM, first compound 0.0316 µM
[14] = second compound 0.1 µM, first compound 0.1 µM
[15] = second compound 0.1 µM, first compound 0.316 µM
[16] = second compound 0.1 µM, first compound 1 µM
[17] = second compound 0.1 µM, first compound 3.16 µM
[18] = second compound 0.1 µM, first compound 10 µM
[19] = second compound 0.316 µM, first compound 0.0316 µM
[20] = second compound 0.316 µM, first compound 0.1 µM
[21] = second compound 0.316 µM, first compound 0.316 µM
[22] = second compound 0.316 µM, first compound 1 µM
[23] = second compound 0.316 µM, first compound 3.16 µM
[24] = second compound 0.316 µM, first compound 10 µM
[25] = second compound 1 µM, first compound 0.0316 µM
[26] = second compound 1 µM, first compound 0.1 µM
[27] = second compound 1 µM, first compound 0.316 µM
[28] = second compound 1 µM, first compound 1 µM
[29] = second compound 1 µM, first compound 3.16 µM
[30] = second compound 1 µM, first compound 10 µM

C=CCn1c(=O)c2cnc(Nc3ccc(N4CCN(C)CC4)cc3)nc2n1-c1cccc(C(C)(C)O)n1 + CCN1CCN(Cc2ccc(Nc3ncc(F)c(-c4cc(F)c5nc(C)n(C(C)C)c5c4)n3)nc2)CC1
IC50 (second compound 0.01 µM): 366 nM | IC50 (second compound 0.0316 µM): 376 nM | IC50 (second compound 0.1 µM): 459 nM | IC50 (second compound 0.316 µM): 1260 nM | IC50 (second compound 1 µM): 2140 nM | viability, T/C [1]: 92.1% | viability, T/C [2]: 86.3% | viability, T/C [3]: 51.9% | viability, T/C [4]: 27.9% | viability, T/C [5]: 16.8% | viability, T/C [6]: 17.2% | viability, T/C [7]: 86.3% | viability, T/C [8]: 75.3% | viability, T/C [9]: 53% | viability, T/C [10]: 31.9% | viability, T/C [11]: 21.2% | viability, T/C [12]: 17.4% | viability, T/C [13]: 82.6% | viability, T/C [14]: 72.2% | viability, T/C [15]: 57.1% | viability, T/C [16]: 36.4% | viability, T/C [17]: 24.9% | viability, T/C [18]: 19.2% | viability, T/C [19]: 80.4% | viability, T/C [20]: 76.9% | viability, T/C [21]: 69% | viability, T/C [22]: 55.6% | viability, T/C [23]: 32.3% | viability, T/C [24]: 21.4% | viability, T/C [25]: 94.4% | viability, T/C [26]: 92.9% | viability, T/C [27]: 79.4% | viability, T/C [28]: 65% | viability, T/C [29]: 42.5% | viability, T/C [30]: 24%

CC(C)n1nc(-c2ccc3oc(N)nc3c2)c2c(N)ncnc21 + CCN1CCN(Cc2ccc(Nc3ncc(F)c(-c4cc(F)c5nc(C)n(C(C)C)c5c4)n3)nc2)CC1
IC50 (second compound 0.01 µM): 7.78 nM | IC50 (second compound 0.0316 µM): 5.53 nM | IC50 (second compound 0.1 µM): 5.64 nM | IC50 (second compound 0.316 µM): 5.59 nM | IC50 (second compound 1 µM): 10.1 nM | viability, T/C (second compound 0.01 µM, first compound 0.000316 µM): 94.1% | viability, T/C (second compound 0.01 µM, first compound 0.001 µM): 88.5% | viability, T/C (second compound 0.01 µM, first compound 0.00316 µM): 69.6% | viability, T/C (second compound 0.01 µM, first compound 0.01 µM): 46.2% | viability, T/C [1]: 19.9% | viability, T/C [2]: 13.2% | viability, T/C (second compound 0.0316 µM, first compound 0.000316 µM): 87.5% | viability, T/C (second compound 0.0316 µM, first compound 0.001 µM): 72.3% | viability, T/C (second compound 0.0316 µM, first compound 0.00316 µM): 63.2% | viability, T/C (second compound 0.0316 µM, first compound 0.01 µM): 39.8% | viability, T/C [7]: 18.3% | viability, T/C [8]: 14.9% | viability, T/C (second compound 0.1 µM, first compound 0.000316 µM): 78.8% | viability, T/C (second compound 0.1 µM, first compound 0.001 µM): 78.1% | viability, T/C (second compound 0.1 µM, first compound 0.00316 µM): 59.1% | viability, T/C (second compound 0.1 µM, first compound 0.01 µM): 40.8% | viability, T/C [13]: 18.7% | viability, T/C [14]: 15.2% | viability, T/C (second compound 0.316 µM, first compound 0.000316 µM): 82% | viability, T/C (second compound 0.316 µM, first compound 0.001 µM): 76.2% | viability, T/C (second compound 0.316 µM, first compound 0.00316 µM): 59% | viability, T/C (second compound 0.316 µM, first compound 0.01 µM): 40.6% | viability, T/C [19]: 23.1% | viability, T/C [20]: 15.8% | viability, T/C (second compound 1 µM, first compound 0.000316 µM): 93.5% | viability, T/C (second compound 1 µM, first compound 0.001 µM): 90.6% | viability, T/C (second compound 1 µM, first compound 0.00316 µM): 69% | viability, T/C (second compound 1 µM, first compound 0.01 µM): 48.8% | viability, T/C [25]: 34.9% | viability, T/C [26]: 19.8%

CC1(C)CCC(CN2CCN(c3ccc(C(=O)NS(=O)(=O)c4ccc(NCC5CCOCC5)c([N+](=O)[O-])c4)c(Oc4cnc5[nH]ccc5c4)c3)CC2)=C(c2ccc(Cl)cc2)C1 + CCN1CCN(Cc2ccc(Nc3ncc(F)c(-c4cc(F)c5nc(C)n(C(C)C)c5c4)n3)nc2)CC1
IC50 (second compound 0.01 µM): 5960 nM | IC50 (second compound 0.0316 µM): 5580 nM | IC50 (second compound 0.1 µM): 5500 nM | IC50 (second compound 0.316 µM): 5710 nM | IC50 (second compound 1 µM): 6840 nM | viability, T/C [1]: 93.3% | viability, T/C [2]: 107% | viability, T/C [3]: 103% | viability, T/C [4]: 99.8% | viability, T/C [5]: 90.4% | viability, T/C [6]: 16.8% | viability, T/C [7]: 96.4% | viability, T/C [8]: 97% | viability, T/C [9]: 98.1% | viability, T/C [10]: 91.1% | viability, T/C [11]: 81% | viability, T/C [12]: 18.6% | viability, T/C [13]: 87.2% | viability, T/C [14]: 95.3% | viability, T/C [15]: 84.6% | viability, T/C [16]: 90.9% | viability, T/C [17]: 76.7% | viability, T/C [18]: 20.8% | viability, T/C [19]: 86.3% | viability, T/C [20]: 89.1% | viability, T/C [21]: 80.6% | viability, T/C [22]: 87.4% | viability, T/C [23]: 80.2% | viability, T/C [24]: 21.3% | viability, T/C [25]: 96.5% | viability, T/C [26]: 98.2% | viability, T/C [27]: 91.8% | viability, T/C [28]: 96.7% | viability, T/C [29]: 101% | viability, T/C [30]: 26.9%

CCCS(=O)(=O)Nc1ccc(F)c(C(=O)c2c[nH]c3ncc(-c4ccc(Cl)cc4)cc23)c1F + CCN1CCN(Cc2ccc(Nc3ncc(F)c(-c4cc(F)c5nc(C)n(C(C)C)c5c4)n3)nc2)CC1
IC50 (second compound 0.01 µM): 4380 nM | IC50 (second compound 0.0316 µM): 4190 nM | IC50 (second compound 0.1 µM): 4320 nM | IC50 (second compound 0.316 µM): 4670 nM | IC50 (second compound 1 µM): 5520 nM | viability, T/C [1]: 96.9% | viability, T/C [2]: 103% | viability, T/C [3]: 99.1% | viability, T/C [4]: 97.4% | viability, T/C [5]: 67% | viability, T/C [6]: 8.02% | viability, T/C [7]: 95.3% | viability, T/C [8]: 100% | viability, T/C [9]: 98.6% | viability, T/C [10]: 92.4% | viability, T/C [11]: 64.4% | viability, T/C [12]: 5.43% | viability, T/C [13]: 90.8% | viability, T/C [14]: 87.6% | viability, T/C [15]: 87.1% | viability, T/C [16]: 82.5% | viability, T/C [17]: 66.4% | viability, T/C [18]: 6.9% | viability, T/C [19]: 92.4% | viability, T/C [20]: 89.5% | viability, T/C [21]: 87.8% | viability, T/C [22]: 79.9% | viability, T/C [23]: 71.7% | viability, T/C [24]: 11.4% | viability, T/C [25]: 106% | viability, T/C [26]: 97.4% | viability, T/C [27]: 102% | viability, T/C [28]: 104% | viability, T/C [29]: 87.1% | viability, T/C [30]: 10.3%

Cn1cnc2c(F)c(Nc3ccc(Br)cc3Cl)c(C(=O)NOCCO)cc21 + CCN1CCN(Cc2ccc(Nc3ncc(F)c(-c4cc(F)c5nc(C)n(C(C)C)c5c4)n3)nc2)CC1
IC50 (second compound 0.01 µM): 2980 nM | IC50 (second compound 0.0316 µM): 2000 nM | IC50 (second compound 0.1 µM): 1470 nM | IC50 (second compound 0.316 µM): 2020 nM | IC50 (second compound 1 µM): > 3000 nM | viability, T/C (second compound 0.01 µM, first compound 0.00949 µM): 98.5% | viability, T/C (second compound 0.01 µM, first compound 0.03 µM): 95% | viability, T/C (second compound 0.01 µM, first compound 0.0949 µM): 82.1% | viability, T/C (second compound 0.01 µM, first compound 0.3 µM): 87.5% | viability, T/C (second compound 0.01 µM, first compound 0.949 µM): 69.4% | viability, T/C (second compound 0.01 µM, first compound 3 µM): 49.2% | viability, T/C (second compound 0.0316 µM, first compound 0.00949 µM): 88.3% | viability, T/C (second compound 0.0316 µM, first compound 0.03 µM): 77% | viability, T/C (second compound 0.0316 µM, first compound 0.0949 µM): 72.2% | viability, T/C (second compound 0.0316 µM, first compound 0.3 µM): 79.4% | viability, T/C (second compound 0.0316 µM, first compound 0.949 µM): 67.1% | viability, T/C (second compound 0.0316 µM, first compound 3 µM): 40.8% | viability, T/C (second compound 0.1 µM, first compound 0.00949 µM): 79.6% | viability, T/C (second compound 0.1 µM, first compound 0.03 µM): 70.6% | viability, T/C (second compound 0.1 µM, first compound 0.0949 µM): 77.7% | viability, T/C (second compound 0.1 µM, first compound 0.3 µM): 65.5% | viability, T/C (second compound 0.1 µM, first compound 0.949 µM): 58.3% | viability, T/C (second compound 0.1 µM, first compound 3 µM): 38.1% | viability, T/C (second compound 0.316 µM, first compound 0.00949 µM): 77.3% | viability, T/C (second compound 0.316 µM, first compound 0.03 µM): 74% | viability, T/C (second compound 0.316 µM, first compound 0.0949 µM): 68.3% | viability, T/C (second compound 0.316 µM, first compound 0.3 µM): 68.3% | viability, T/C (second compound 0.316 µM, first compound 0.949 µM): 56.2% | viability, T/C (second compound 0.316 µM, first compound 3 µM): 46% | viability, T/C (second compound 1 µM, first compound 0.00949 µM): 89.8% | viability, T/C (second compound 1 µM, first compound 0.03 µM): 89.7% | viability, T/C (second compound 1 µM, first compound 0.0949 µM): 78.9% | viability, T/C (second compound 1 µM, first compound 0.3 µM): 75.3% | viability, T/C (second compound 1 µM, first compound 0.949 µM): 69.2% | viability, T/C (second compound 1 µM, first compound 3 µM): 53%

— PubChem BioAssay AID2060331 (Molecular Pharmacology Branch, DTP, NCI, 2025)
